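How tested: cells in 96-well plates exposed to compound for 48 hours at five concentrations. Abbreviation: GI50, concentration required for 50% inhibition of growth.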 Active and inactive are the calls of the source. Rule as the data show it: active = GI50 up to about 1.1 µM and inactive = higher.
Legend:
Assay in all cases: NCI-60 cell line screen, 48 h
SN12C = system: SN12C
NCI-H522 = system: NCI-H522
A549 = system: A549
EKVX = system: EKVX
ACHN = system: ACHN
OVCAR-4 = system: OVCAR-4
Malme-3M = system: Malme-3M
SK-OV-3 = system: SK-OV-3
IGROV-1 = system: IGROV-1
HCC 2998 = system: HCC 2998
SF-539 = system: SF-539
UO-31 = system: UO-31
UACC-257 = system: UACC-257
HCT-15 = system: HCT-15
OVCAR-8 = system: OVCAR-8
K562 = system: K562
OVCAR-3 = system: OVCAR-3
M14 = system: M14
MCF7 = system: MCF7
NCI/ADR-RES = system: NCI/ADR-RES

| SMILES | GI50 (SN12C) | GI50 (NCI-H522) | GI50 (A549) | GI50 (EKVX) | GI50 (ACHN) | GI50 (OVCAR-4) | GI50 (Malme-3M) | GI50 (SK-OV-3) | GI50 (IGROV-1) | GI50 (HCC 2998) | GI50 (SF-539) | GI50 (UO-31) | GI50 (UACC-257) | GI50 (HCT-15) [µM] | GI50 (OVCAR-8) | GI50 (K562) | GI50 (OVCAR-3) | GI50 (M14) | GI50 (MCF7) | GI50 (NCI/ADR-RES) |
| --- | --- | --- | --- | --- | --- | --- | --- | --- | --- | --- | --- | --- | --- | --- | --- | --- | --- | --- | --- | --- |
| COC1OC2=CCC3C(=O)NC(=O)C3C2[C@H](OCc2ccccc2)C1OCc1ccccc1 (some centres not stated) | 1.74 µM (inactive) | 1.67 µM (inactive) | 18.9 µM (inactive) | 1.85 µM (inactive) | 19.9 µM (inactive) | 3.84 µM (inactive) | 1.77 µM (inactive) | 17.1 µM (inactive) | 2.04 µM (inactive) | 3.74 µM (inactive) | 17.3 µM (inactive) | 17.7 µM (inactive) | 2.09 µM (inactive) | 1.93 | 1.6 µM (inactive) | 1.82 µM (inactive) | 1.71 µM (inactive) | 1.81 µM (inactive) | – | – |
| CCOC(=O)c1csc(NC(=O)CCN2CCCC2)n1 | – | – | > 100 µM (inactive) | > 100 µM (inactive) | > 100 µM (inactive) | > 100 µM (inactive) | – | > 100 µM (inactive) | > 100 µM (inactive) | > 100 µM (inactive) | > 100 µM (inactive) | > 100 µM (inactive) | > 100 µM (inactive) | > 100 | > 100 µM (inactive) | > 100 µM (inactive) | > 100 µM (inactive) | > 100 µM (inactive) | > 100 µM (inactive) | > 100 µM (inactive) |
| O=C1C=C(C2OC(CO)C(O)C2O)C(=O)N1 (configuration not stated) | > 100 µM (inactive) | 19.8 µM (inactive) | > 100 µM (inactive) | > 100 µM (inactive) | – | > 100 µM (inactive) | > 100 µM (inactive) | > 100 µM (inactive) | > 100 µM (inactive) | > 100 µM (inactive) | > 100 µM (inactive) | > 100 µM (inactive) | > 100 µM (inactive) | > 74.5 | > 100 µM (inactive) | 47.6 µM (inactive) | > 100 µM (inactive) | – | > 91.8 µM (inactive) | > 100 µM (inactive) |
| C/C(=N\Oc1cc(Cl)ncn1)c1ccccn1 | > 100 µM (inactive) | 17.9 µM (inactive) | 86.7 µM (inactive) | 38.5 µM (inactive) | 90.6 µM (inactive) | > 100 µM (inactive) | 61.9 µM (inactive) | 92.5 µM (inactive) | 21.9 µM (inactive) | 17.4 µM (inactive) | 29.6 µM (inactive) | 52 µM (inactive) | 99.8 µM (inactive) | – | > 100 µM (inactive) | 56.5 µM (inactive) | 20.2 µM (inactive) | 18.4 µM (inactive) | 55.3 µM (inactive) | > 100 µM (inactive) |
